Results published in patent publication US20190388421A1, “NOVEL COMPOUNDS AND PHARMACEUTICAL COMPOSITIONS THEREOF FOR THE TREATMENT OF FIBROSIS” (Galapagos NV, priority 2016, published 2019).

Tests used:
[1] = target: T1, human GPCR sphingosine 1-phosphate receptor 5 (S1PR5) (Homo sapiens, UniProt Q9H228); assay: S1PR5 selectivity assay (Ca2+ flux, antagonist, S1PR5 specific agonist trigger); type: cell-based; details: S1P5 antagonist EC50, CHO cells overexpressing human S1PR5 and Gq protein
T1 construct: host or cells: CHO
Protocol: (§1) After readout of the agonist activity, the plates are incubated for 15 min at 37° C. and 5% CO2. Then, cells are stimulated with 10 μL Sphingosine-1-Phosphate (S1P) (Avanti Polar lipids-860492P) at its EC80 concentration. Intracellular Ca^2+ changes are immediately measured by reading fluorescence during 3 min (FDSS/μCELL reader). The ratio of the maximal fluorescence over the background fluorescence before compound injection is used to determine compound response.
(§2) For EC50 determination, a 10 point dilution series of compounds starting from 23.3 μM and 20 μM highest final concentration for agonist and antagonist respectively, ⅓ dilution was performed.
(§3) The obtained ratio's for agonist and antagonist readout were normalized versus vehicle and EC100 of S1P as controls for agonist mode and versus vehicle and EC80 of S1P for antagonist mode. From these normalized data EC50 of the compounds are derived.
(§4) To evaluate the selectivity of the compounds for S1PR2 over S1PR1 and S1PR5, a similar assay set up as described above for the S1PR2 calcium flux assays was performed: CHO cells stably overexpressing human GPCR sphingosine 1-phosphate receptor 1 and Gq protein (Euroscreen, FAST-0197A) or overexpressing human GPCR sphingosine 1-phosphate receptor 5 and Gq protein were used (Perkin Elmer, ES-593-A). In case of the S1PR5 assay triggering was done with an S1PR5 specific agonist instead of with S1P (Hobson et al., 2015).

[2] = target: T2, human GPCR sphingosine 1-phosphate receptor 1 (S1PR1) (Homo sapiens, UniProt P21453); assay: S1PR1 selectivity assay (Ca2+ flux, antagonist); type: cell-based; details: S1P1 antagonist EC50, CHO cells overexpressing human S1PR1 and Gq protein
T2 construct: host or cells: CHO
Protocol: as §1, §2, §3, §4

S1PR2 = target: T3, S1PR2 (Homo sapiens, UniProt O95136); assay: GTP-γS binding assay ([35S]GTPγS, S1P at EC80, S1PR2 membranes); type: biochemical; details: membranes from stable cell line over expressing S1PR2, read-out: S1PR2 EC
T3 construct: expressed in transfected cells
Protocol: The following assay can be used for determination of S1PR2 activation. The [^35S] GTPγS assay measures the level of G protein activation following agonist occupation of a GPCR, by determining the binding of the non-hydrolysable analog [^35S] GTPγS to Gα subunits.
The assay is performed in a 96 well plate where the following reagents are added. First 50 μL compound is added into the assay plate, followed by addition of 20 μL S1P at EC80 concentration (concentration which gives 80% of the activity of S1PR2). Then, 30 μL of a mixture consisting of membranes-GTPγS-SpA beads is added [mixture consists of 2.5 μg/well membranes derived from stable cell line over expressing S1PR2 (membranes are pre-incubated with 1 μM GDP for 15 min at 4° C.), 0.1 nM [35S]GTPγS (Perkin Elmer, NEG030) and 0.5 mg/well PVT-WGA SpA beads (Perkin Elmer, RPNQ0001)]. All components are diluted in assay buffer containing 20 mM Tris pH 7.5; 10 mM MgCl2; 100 mM NaCl; 0.1% BSA FAF; 50 ug/ml saponin. After an incubation for 4 h at room temperature, plates are centrifuged at 2000 rpm during 20 min. Plates are read on a Topcount reader (Perkin Elmer) immediately after centrifugation (readout time, 1 min/well).

[3] = target: T4, human GPCR sphingosine 1-phosphate receptor 2 (S1PR2) (Homo sapiens, UniProt O95136); assay: S1P2 antagonist assay (Ca2+ flux, S1P at EC80); type: cell-based; details: CHO-S1PR2 cells, highest concentration 20 μM
T4 construct: host or cells: CHO
Protocol: Triggering of S1PR2 by administration of Sphingosine-1-phosphate leads to a transient increase in intracellular Ca^2+. The Ca^2+ flux assays are measuring the release of Ca^2+ intracellularly by use of a Ca^2+ sensitive fluorescent dye. The assay is firstly run in agonist mode (incubation of compounds alone) to ensure that the Ca^2+ released measured is not caused by the test compound having an agonistic effect. Then the assay is continued in antagonist mode (Sphingosine-1-Phosphate added to incubated medium containing the test compounds).
CHO cells stably overexpressing human GPCR sphingosine 1-phosphate receptor 2 (CHO—S1PR2 Perkin Elmer; ES-594-A) are seeded from a frozen stock in 384 wells sterile microplates (50 μL; 7,500 cells/well) and are incubated overnight at 37° C. and 5% CO2. The next day cells are washed twice with starvation medium (F-12 Ham's medium containing 0.1% BSA (Fatty acid free: FAF)) and left in […] starvation medium for 1 h at 37° C., 5% CO2. After this starvation cells are incubated with […] buffer containing the Ca^2+-sensitive fluorescent dye (0.5 mg Fluo8+125 mg Allura Red in 100 ml of 1% DMSO, in HBSS+20 mM Hepes+5 mM probenecid). The cells are incubated for an additional 1 hour after which 10 μL compounds, diluted in HBSS buffer with 20 mM Hepes and 0.1% BSA (FAF), are added to the cells and intracellular Ca^2+ changes are immediately measured by reading fluorescence during 3 min (FDSS/μCELL reader). The ratio of the maximal fluorescence over the background fluorescence before compound injection is used to determine compound response.
as §1, §2, §3

T2 sequence (P21453 whole entry): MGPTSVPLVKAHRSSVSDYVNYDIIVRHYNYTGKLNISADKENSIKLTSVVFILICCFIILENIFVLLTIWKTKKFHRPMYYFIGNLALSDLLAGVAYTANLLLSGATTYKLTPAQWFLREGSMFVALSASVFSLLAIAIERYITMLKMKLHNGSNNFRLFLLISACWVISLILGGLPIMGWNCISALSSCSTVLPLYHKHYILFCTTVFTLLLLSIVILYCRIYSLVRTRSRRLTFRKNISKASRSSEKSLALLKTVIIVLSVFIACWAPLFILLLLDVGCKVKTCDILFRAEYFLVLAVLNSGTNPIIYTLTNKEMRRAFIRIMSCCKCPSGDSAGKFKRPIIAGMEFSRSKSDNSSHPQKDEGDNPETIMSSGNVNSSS
T3 sequence (O95136 whole entry): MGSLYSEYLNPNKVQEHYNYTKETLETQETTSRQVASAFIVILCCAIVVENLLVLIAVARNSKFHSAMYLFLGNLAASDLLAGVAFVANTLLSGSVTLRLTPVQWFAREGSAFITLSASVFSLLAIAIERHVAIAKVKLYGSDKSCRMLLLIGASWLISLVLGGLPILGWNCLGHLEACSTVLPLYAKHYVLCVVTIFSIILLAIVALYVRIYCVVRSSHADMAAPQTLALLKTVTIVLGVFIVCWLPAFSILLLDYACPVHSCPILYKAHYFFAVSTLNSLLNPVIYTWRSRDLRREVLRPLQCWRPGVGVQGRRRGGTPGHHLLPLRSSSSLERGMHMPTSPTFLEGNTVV
T4 sequence (O95136 whole entry): as above
T1 sequence (Q9H228 whole entry): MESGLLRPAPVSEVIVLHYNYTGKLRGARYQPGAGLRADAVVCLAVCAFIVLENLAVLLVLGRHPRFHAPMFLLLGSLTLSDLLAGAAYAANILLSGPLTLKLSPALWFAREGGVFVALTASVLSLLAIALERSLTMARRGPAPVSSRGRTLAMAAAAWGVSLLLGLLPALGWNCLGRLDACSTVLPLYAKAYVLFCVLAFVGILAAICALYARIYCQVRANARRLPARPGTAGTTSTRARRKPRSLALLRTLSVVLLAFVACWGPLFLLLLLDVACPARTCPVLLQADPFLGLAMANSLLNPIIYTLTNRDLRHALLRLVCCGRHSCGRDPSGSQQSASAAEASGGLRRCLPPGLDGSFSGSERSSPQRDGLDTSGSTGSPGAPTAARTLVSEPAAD

| SMILES | EC50 [1] [nM] | EC50 [2] [nM] | EC50 (S1PR2) [nM] | EC50 [3] [nM] |
| --- | --- | --- | --- | --- |
| CCOc1cc(NC(=O)NCc2cc(C)c(N3CC(C)O[C@H](C)C3)nn2)cc(C(F)(F)F)n1 (stereo in doubt) [Compound 100, 1-[[6-[(2R,6S)-2,6-dimethyl-morpholin-4-yl]-5-methyl-pyridazin-3-yl]methyl]-3-(2-ethoxy-6-(trifluoromethyl)-4-pyridyl]urea] | 2480 | 6610 | – | – |
| Cc1cc(CNC(=O)Nc2cc(Cl)cc(Cl)c2)nnc1-c1cn(C)nc1C(F)(F)F [Compound 6, 1-(3,5-dichlorophenyl)-3-[[5-methyl-6-[1-methyl-3-(trifluoromethyl)pyrazol-4-yl]pyridazin-3-yl]methyl]urea] | – | – | 50.2 | 16.9 |
| Cc1cc(CNC(=O)Nc2cnc(OCC(F)F)c(C(F)(F)F)c2)nnc1-c1cn(C)nc1C(F)(F)F [Compound 7, 1-[6-(2,2-difluoroethoxy)-5-(trifluoromethyl)-3-pyridyl]-3-[[5-methyl-6-[1-methyl-3-(trifluoromethyl)pyrazol-4-yl]pyridazin-3-yl]methyl]urea] | ≥ 19800 | ≥ 19800 | 330 | 17.8 |
| Cc1cc(CNC(=O)Nc2cnc(OCC3CC3)c(C(F)(F)F)c2)nnc1-c1cn(C)nc1C(F)(F)F [Compound 11, 1-[6-cyclopropyl-methoxy-5-(trifluoromethyl)-3-pyridyl]-3-[[5-methyl-6-[1-methyl-3-(trifluoromethyl)pyrazol-4-yl]pyridazin-3-yl]methyl]urea] | – | – | 716 | 49.6 |
| Cc1cc(CNC(=O)Nc2cnc(OCC(F)(F)F)c(C(F)(F)F)c2)nnc1-c1cn(C)nc1C(F)(F)F [Compound 12, 1-[[5-methyl-6-[1-methyl-3-(trifluoromethyl)pyrazol-4-yl]pyridazin-3-yl]methyl]-3-[6-(2,2,2-trifluoroethoxy)-5-(trifluoromethyl)-3-pyridyl]urea] | – | – | 590 | 11.7 |
| Cc1cc(CNC(=O)Nc2cnc(OCC3CC3)c(Cl)c2)nnc1-c1cn(C)nc1C(F)(F)F [Compound 13, 1-[5-chloro-6-(cyclopropyl-methoxy)-3-pyridyl]-3-[[5-methyl-6-[1-methyl-3-(trifluoromethyl)pyrazol-4-yl]pyridazin-3-yl]methyl]urea] | – | – | 1120 | 40.3 |
| Cc1cc(CNC(=O)Nc2cc(Cl)nc(OCC(F)(F)F)c2)nnc1-c1cn(C)nc1C(F)(F)F [Compound 14, 1-[2-chloro-6-(2,2,2-trifluoroethoxy)-4-pyridyl]-3-[[5-methyl-6-[1-methyl-3-(trifluoromethyl)pyrazol-4-yl]pyridazin-3-yl]methyl]urea] | – | – | 225 | 24.2 |
| Cc1cc(CNC(=O)Nc2cc(OCC(F)F)nc(C(F)(F)F)c2)nnc1-c1cn(C)nc1C(F)(F)F [Compound 19, 1-[2-(2,2-difluoroethoxy)-6-(trifluoromethyl)-4-pyridyl]-3-[[5-methyl-6-[1-methyl-3-(trifluoromethyl)pyrazol-4-yl]pyridazin-3-yl]methyl]urea] | – | – | 88.7 | 17.1 |
| Cc1cc(CNC(=O)Nc2cc(OCC(F)F)nc(C3CC3)c2)nnc1-c1cn(C)nc1C(F)(F)F [Compound 29, 1-[2-cyclopropyl-6-(2,2-difluoroethoxy)-4-pyridyl]-3-[[5-methyl-6-[1-methyl-3-(trifluoromethyl)pyrazol-4-yl]pyridazin-3-yl]methyl]urea] | – | – | 275 | 27.3 |
| CCOc1cc(NC(=O)NCc2cc(C)c(-c3cn(C)nc3C(F)(F)F)nn2)nc(OCC)n1 [Compound 31, 1-(2,6-diethoxy-pyrimidin-4-yl)-3-[[5-methyl-6-[1-methyl-3-(trifluoromethyl)pyrazol-4-yl]pyridazin-3-yl]methyl]urea] | – | – | 1650 | 3140 |
| Cc1cc(CNC(=O)Nc2cc(Cl)c(F)c(Cl)c2)nnc1-c1cn(C)nc1C(F)(F)F [Compound 32, 1-(3,5-dichloro-4-fluoro-phenyl)-3-[[5-methyl-6-[1-methyl-3-(trifluoromethyl)pyrazol-4-yl]pyridazin-3-yl]methyl]urea] | – | – | 164 | 11.1 |
| Cc1cc(CNC(=O)Nc2cc(OCC3CC3(F)F)nc(C(F)(F)F)c2)nnc1-c1cn(C)nc1C(F)(F)F (centres unmarked) [Compound 33, 1-[2-[(2,2-difluoro-cyclopropyl)methoxy]-6-(trifluoromethyl)-4-pyridyl]-3-[[5-methyl-6-[1-methyl-3-(trifluoromethyl)pyrazol-4-yl]pyridazin-3-yl]methyl]urea] | – | – | 164 | 37.1 |
| Cc1cc(CNC(=O)Nc2cc(OCC3CCOC3)nc(C(F)(F)F)c2)nnc1-c1cn(C)nc1C(F)(F)F (centres unmarked) [Compound 36] | – | – | 1800 | 791 |
| CCOc1nc(C(F)(F)F)cc(NC(=O)NCc2cc(C)c(-c3cn(C)nc3C(F)(F)F)nn2)c1Br [Compound 49, 1-[3-bromo-2-ethoxy-6-(trifluoromethyl)-4-pyridyl]-3-[[5-methyl-6-[1-methyl-3-(trifluoromethyl)pyrazol-4-yl]pyridazin-3-yl]methyl]urea] | – | – | – | 11.5 |
| Cc1cc(CNC(=O)Nc2cnc(OCC(F)F)c(Cl)c2)nnc1N1CC(C)OC(C)C1 (centres unmarked) [Compound 84, 1-[5-chloro-6-(2,2-difluoroethoxy)-3-pyridyl]-3-[[6-(2,6-dimethyl-morpholin-4-yl)-5-methyl-pyridazin-3-yl]methyl]urea] | – | – | – | 6510 |
| CCOc1ncc(NC(=O)NCc2cc(C)c(N3CC(C)OC(C)C3)nn2)cc1Cl (centres unmarked) [Compound 86, 1-(5-chloro-6-ethoxy-3-pyridyl)-3-[[6-(2,6-dimethyl-morpholin-4-yl)-5-methyl-pyridazin-3-yl]methyl]urea] | – | – | – | 1360 |
| Cc1cc(CNC(=O)Nc2cnc(OCC3CC3)c(Cl)c2)nnc1N1CC(C)OC(C)C1 (centres unmarked) [Compound 88, 1-[5-chloro-6-(cyclopropyl-methoxy)-3-pyridyl]-3-[[6-(2,6-dimethyl-morpholin-4-yl)-5-methyl-pyridazin-3-yl]methyl]urea] | – | – | – | 4510 |
| CCOc1nc(C)cc(NC(=O)NCc2cc(C)c(N3C[C@@H](C)O[C@@H](C)C3)nn2)c1C [Compound 95, 1-[[6-[(2R,6S)-2,6-dimethyl-morpholin-4-yl]-5-methyl-pyridazin-3-yl]methyl]-3-(2-ethoxy-3,6-dimethyl-4-pyridyl)urea] | 809 | 6610 | – | – |
| CCOc1cc(N[14C](=O)NCc2cc(C)c(-c3cn(C)nc3C(F)(F)F)nn2)cc(C(F)(F)F)n1 [Compound 98, 1-(2-Ethoxy-6-trifluoromethyl-pyridin-4-yl)-3-[5-methyl-6-(1-methyl-3-trifluoromethyl-1H-pyrazol-4-yl)-pyridazin-3-ylmethyl]-C14 urea] | – | – | 16300 | – |
